The results in this text go back to patent US20260224758A1, “ALPHA-SYNUCLEIN BINDERS AND METHODS OF USE” (Merck Sharp & Dohme LLC, priority 2023, published 2026).

For series [1], the target named is aggregated beta amyloid in AD tissue (Homo sapiens, UniProt P05067). Kind of series: Competitive radioligand binding to pathological aggregated beta amyloid in AD tissue (Assay 2), displacement of [^3H]-105. The note with it: Aβ-rich AD frontal cortex homogenate, [^3H]-105, Kd 11.0 nM.
Method: Frozen human brain samples of Alzheimer's disease (AD) were purchased from Analytic Biological Services Inc. The samples were post-mortem tissue from donors with clinical diagnosis of AD and much of the white matter was dissected out of the frontal cortex in order to enrich the tissue preparations for gray matter. Brain homogenates of gray matter enriched frontal cortex were prepared by homogenizing the tissue in ice cold Phosphate Buffered Saline (PBS), pH 7.4 at 80 mg wet weight tissue per 1 ml for 45 seconds at 4° C., on setting 16 of Polytron. The homogenate was further diluted with ice cold PBS to 30 mg wet weight tissue per 1 ml and homogenized for an additional minute as described above. Homogenates were aliquoted in 5 ml/tube and stored at −70° C. until use.
Radioligand [^3H]-105, prepared as described in ACS Med. Chem. Lett., Vol. 2, pages 498-502, was used in this assay.
For Assay 2 unlabeled test compounds were dissolved in DMSO at 10 mM. Dilutions of tests compounds to various concentrations were made in 100% DMSO at 1000× final assay concentration and 0.225 μl aliquots were dispensed into assay plates. Brain homogenates were diluted to 0.5 mg/ml from original 30 mg/ml volume in Assay Buffer, and 200 μl were added to the assay plate for a final concentration of 100 ug wet weight/assay well. [^3H]-105 was prepared at 10× final concentration in Assay Buffer plus 20% DMSO and 25 μl was added to the assay plate for final assay concentration of 3.0 nM. The plates were incubated at 37° C. for 90 minutes. Unbound and bound ligand were separated by filtration of bound onto GF/B filter plates (pre-treated for 30 min with 0.1% PEI) using a Packard Filtermate and washing away unbound with 2.5 mil ice cold 5 mM Tris at pH 7.4. Filter plates were dried for 1 hr at 57° C. and 50 μl Microscint was added to each well of the plate. The plates were counted for ^3H cpm for 1 min per well using PerkinElmer TopCount.
The target of series [2] is T1, triton-extracted alpha-synuclein from PD Tissue (Homo sapiens, UniProt P37840).
T1 construct: tissue Analytic Biological Services Inc; host or cells: human PD temporal cortex grey matter, Triton X-100 insoluble pellet
The series is described as follows: Alpha-synuclein tissue homogenate binding assay (Assay 1), displacement of [^3H]-1000. The note with it: for Selectivity ratio (Assay 2/Assay 1): Aβ Tissue Ki / α-synuclein Tissue Ki; for Ki: read-out: α-synuclein Tissue Ki (Assay 1).

Series [3] is described as follows: [^11C]-2 PET imaging in rhesus monkey. The format is in vivo. The note with it: IV, averaged over 30-90 minutes post injection. As to the method: A fasted rhesus monkey (7-11 kg) is anesthetized with ketamine I.M. (15 mpk) and the monkey is placed in the PET camera bed. An I.V, catheter is inserted into the right saphenous vein. For arterial sampling, the right femoral area is aseptically prepared and an arterial catheter is placed and fixed with sutures.
Subsequent anesthesia is maintained with Propofol. Induction dose is 5 mg/kg I.V., followed by an infusion at 0.4-0.6 mg/kg/min for the duration of the scanning procedure. The animal is intubated and positioned inside the camera gantry supine, head first. Animal is maintained on ventilated medical grade air:oxygen gas mixture at approximately 23 respirations per minute for the duration of the study. Ventilation I:E ratio, volume and rate of respiration is adjusted to maintain CO2 levels about 40 mmHg and SpO2 levels 95 to 100%. A temperature probe, pulse oximeter, non-invasive blood pressure cuff, and end tidal CO2 monitor are connected. […]
Whole blood samples are collected via arterial catheter into Heparin tubes for determination of radioactivity in whole blood and plasma. Samples are centrifuged and 20 μl whole blood and plasma are counted 20, 40, 80, 100, 120, and 150 seconds post PET ligand injection. Samples of blood (0.8 ml) are taken for metabolite correction and determination of radioactivity in plasma and whole blood at 3, 5, 15, 30, 60, and 90 minutes. […]

[4] abbreviates: insoluble fraction of PD brain homogenate, [^3H]-1000 3.0 nM, Kd 0.90 nM.

Structures are written as SMILES. Read-outs that look alike come from different tables or passages of the source. Bounds are passed on as bounds.

Sequence of aggregated beta amyloid in AD tissue (P05067 672-711 limits assumed): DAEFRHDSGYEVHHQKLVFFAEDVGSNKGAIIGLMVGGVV

Consider `COC[C@H]1CN(c2ncc(C#Cc3ccc(-c4cnco4)nc3)cn2)CCN1c1ccnc(F)c1` [Example 64, (R)-5-(5-((2-(4-(2-fluoropyridin-4-yl)-3-(methoxymethyl)piperazin-1-yl)pyrimidin-5-yl)ethynyl)pyridin-2-yl)oxazole], for which the inhibition constant Ki in series [1] is not below 1200 nM; in series [2] (setting [4]) it was 2.71 nM. Also, in series [2], the “Selectivity ratio (Assay 2/Assay 1)” value amounted to 442.

With `COC[C@H]1CN(c2ccccn2)CCN1c1ncc(/C=C/c2ccc(-c3ncco3)nc2)cn1` [Example 20, (R,E)-2-(5-(2-(2-(2-(methoxymethyl)-4-(pyridin-2-yl)piperazin-1-yl)pyrimidin-5-yl)vinyl)pyridin-2-yl)oxazole], the Ki in series [1] was not below 12000 nM; in series [2] (setting [4]) it was 1.7 nM. Further, the “Selectivity ratio (Assay 2/Assay 1)” value in series [2] is on record as 7059.

On to `Cn1cc(-c2ncc(C#Cc3cnc(N4CCN(c5ncncn5)[C@@H](COCCOCCF)C4)nc3)cn2)cn1` [Example 78, (R)-2-(2-((2-(2-fluoroethoxy)ethoxy)methyl)-4-(5-((2-(1-methyl-1H-pyrazol-4-yl)pyrimidin-5-yl)ethynyl)pyrimidin-2-yl)piperazin-1-yl)-1,3,5-triazine], for which the Ki was not below 1200 nM in series [1] and 1.59 nM in series [2] (setting [4]). Also, in series [2], the “Selectivity ratio (Assay 2/Assay 1)” value amounted to 753.

Consider `COC[C@H]1CN(c2ncc(C#Cc3ccc(-n4ccnc4)nc3)cn2)CCN1c1ncccn1` [Example 11, (R)-5-((6-(1H-imidazol-1-yl)pyridin-3-yl)ethynyl)-2-(3-(methoxymethyl)-4-(pyrimidin-2-yl)piperazin-1-yl)pyrimidine], for which the Ki is not below 12000 nM in series [1] and 1.1 nM in series [2] (setting [4]). The “Selectivity ratio (Assay 2/Assay 1)” value in series [2] is recorded as 10909.

In the case of `COC[C@H]1CN(c2ncc(/C=C/c3ccc(-n4ccnc4)nc3)cn2)CCN1c1ccccn1` [Example 22, (R,E)-5-(2-(6-(1H-imidazol-1-yl)pyridin-3-yl)vinyl)-2-(3-(methoxymethyl)-4-(pyridin-2-yl)piperazin-1-yl)pyrimidine], the inhibition constant Ki in series [1] was 1300 nM; in series [2] (setting [4]), 0.7 nM. Also, the “Selectivity ratio (Assay 2/Assay 1)” value in series [2] is reported as 1857.

For `COC[C@H]1CN(c2ccccn2)CCN1c1ncc(/C=C/c2ccc(-n3cnnc3)nc2)cn1` [Example 5, (R,E)-5-(2-(6-(4H-1,2,4-triazol-4-yl)pyridin-3-yl)vinyl)-2-(2-(methoxymethyl)-4-(pyridin-2-yl)piperazin-1-yl)pyrimidine], the Ki in series [1] was not below 12000 nM; in series [2] (setting [4]) it was 1.6 nM. The “Selectivity ratio (Assay 2/Assay 1)” value in series [2] came to 7500.

Turning to `COC[C@H]1CN(c2ccccn2)CCN1c1ncc(/C=C/c2ccc(-c3cnco3)nc2)cn1` [Example 26, (R,E)-5-(5-(2-(2-(2-(methoxymethyl)-4-(pyridin-2-yl)piperazin-1-yl)pyrimidin-5-yl)vinyl)pyridin-2-yl)oxazole], the Ki in series [1] is not below 12000 nM; in series [2] (setting [4]), 3.1 nM. Besides, the “Selectivity ratio (Assay 2/Assay 1)” value in series [2] amounted to 3871.

For `COC[C@H]1CN(c2ncc(C#Cc3ccc(-n4cnnc4F)nc3)cn2)CCN1c1ncccn1` [Example 59, (R)-5-((6-(3-fluoro-4H-1,2,4-triazol-4-yl)pyridin-3-yl)ethynyl)-2-(3-(methoxymethyl)-4-(pyrimidin-2-yl)piperazin-1-yl)pyrimidine], the Ki in series [1] is not below 1200 nM; in series [2] (setting [4]) it was 5.06 nM. The “Selectivity ratio (Assay 2/Assay 1)” value in series [2] is listed as 237.

`COC[C@H]1CN(c2ncc(/C=C/c3ccc(-n4ccnc4)nc3)cn2)CCN1c1ncc(CO)cn1` [Example 7, (R,E)-(2-(4-(5-(2-(6-(1H-imidazol-1-yl)pyridin-3-yl)vinyl)pyrimidin-2-yl)-2-(methoxymethyl)piperazin-1-yl)pyrimidin-5-yl)methanol] registered a Ki in series [1] of 480 nM. In addition, in series [2], the “Selectivity ratio (Assay 2/Assay 1)” value is listed as 436 and the Ki was 1.1 nM.

For the molecule `COC[C@H]1CN(c2ncc(C#Cc3ccc(-n4ccnc4)nc3)cn2)CCN1c1ccnc(F)n1` [Example 61, (R)-4-(4-(5-((6-(1H-imidazol-1-yl)pyridin-3-yl)ethynyl)pyrimidin-2-yl)-2-(methoxymethyl)piperazin-1-yl)-2-fluoropyrimidine], the values for the inhibitory constant (Ki) in series [1] and in series [2] (setting [4]) were not below 1200 nM and 1.49 nM, respectively. Moreover, the “Selectivity ratio (Assay 2/Assay 1)” value in series [2] is reported as 805.

Consider `COC[C@H]1CN(c2ncc(C)cn2)CCN1c1ncc(/C=C/c2ccc(-n3ccnc3)nc2)cn1` [Example 25, (R,E)-5-(2-(6-(1H-imidazol-1-yl)pyridin-3-yl)vinyl)-2-(2-(methoxymethyl)-4-(5-methylpyrimidin-2-yl)piperazin-1-yl)pyrimidine], for which the inhibition constant Ki in series [1] was 360 nM; in series [2] (setting [4]) it was 0.9 nM. Also, the “Selectivity ratio (Assay 2/Assay 1)” value in series [2] worked out at 400.

On to `[11CH3]OC[C@H]1CN(c2ncc(/C=C/c3ccc(-n4ccnc4)nc3)cn2)CCN1c1ncccn1` [[^11C]-2], for which the “distribution in monkey brain (PET image)” value in series [3] was “suitable distribution”.

As for `FCCOC[C@H]1CN(c2ncc(/C=C/c3ccc(-c4cnco4)nc3)cn2)CCN1c1ncncn1` [Example 41, (R,E)-5-(5-(2-(2-(3-((2-fluoroethoxy)methyl)-4-(1,3,5-triazin-2-yl)piperazin-1-yl)pyrimidin-5-yl)vinyl)pyridin-2-yl)oxazole], the Ki in series [1] was not below 1200 nM; in series [2] (setting [4]), 0.8 nM. Besides, the “Selectivity ratio (Assay 2/Assay 1)” value in series [2] amounted to 1500.

For orientation: Ki means a measure of affinity in units of concentration, obtained from inhibition or displacement.
